Assays:
H460 = experiment: CCK8 cell viability assay, H460; type: cell-based, Human; conditions: for Cell viability (100%): H460, 20 µM, 48 h, CCK8, control = 100%; for IC50: H460, 48 h, CCK8, mean ± SE
Description: (§1) At first, CCK8 assay was carried out to evaluate the anti-proliferative activity of dolutegravir-1,2,3-triazole derivatives against different cancer cell lines. The results of cell viability of three lung cancer cell lines A549, PC-9 and H460 in the presence of compounds 9 and 10 are summarized in Table 2. Cells were treated with different compounds at the concentration of 20 µM for 48 h. […] Human lung cancer cell lines A549, PC-9 and H460 were all obtained from ATCC. Cells were cultured in DMEM or RPMI 1640 medium containing 10% FBS and 1% penicillin/streptomycin at 37 °C with a 5% CO2-humidified atmosphere. CCK8 assay was used to measure cell viability. Cells with a density of 1 × 10^4 cells/well were seeded on the 96-well plates. After adhesion, cells were treated with different diluted compounds or vehicle control DMSO and continue cultured for 48 h. Then, CCK8 reagent was added for one hour incubation at 37 °C with 5% of CO2. Absorbance was measured using a microplate spectrophotometer (Thermo) at 450 nm. The ratio of cell viability of control was taken as 100%. […] Then IC50 of the compounds were investigated using the prism statistical software.

A549 = experiment: CCK8 cell viability assay, A549; type: cell-based, Human; conditions: for Cell viability (100%): A549, 20 µM, 48 h, CCK8, control = 100%; for IC50: A549, 48 h, CCK8, mean ± SE
Description: as §1

PC-9 = experiment: CCK8 cell viability assay, PC-9; type: cell-based, Human; conditions: for Cell viability (100%): PC9, 20 µM, 48 h, CCK8, control = 100%; for IC50: PC9, 48 h, CCK8, mean ± SE
Description: as §1

[1] = tested on: HRM (Human Renal Mesangial) cell line; experiment: CCK8 cell viability assay, HRM normal cells (toxicity control); type: cell-based; conditions: HRM normal human cells, 48 h, CCK8, mean ± SE
Description: Based on these preliminary results, compounds 9c, 9e, 9f, 9i, 9k, 9 L, 9p, 9q, 9t, 9u, 9v, 9w, 10c, 10e which were effective to most of the cell lines were chosen for the measurement of the half-maximal inhibitory concentration (IC50). […] HRM (Human Renal Mesangial) cell line was used as a control to study the toxicity of these compounds against normal human cells.
CCK8 assay was used to measure cell viability. Cells with a density of 1 × 10^4 cells/well were seeded on the 96-well plates. After adhesion, cells were treated with different diluted compounds or vehicle control DMSO and continue cultured for 48 h. Then, CCK8 reagent was added for one hour incubation at 37 °C with 5% of CO2. Absorbance was measured using a microplate spectrophotometer (Thermo) at 450 nm. The ratio of cell viability of control was taken as 100%. […] Then IC50 of the compounds were investigated using the prism statistical software.

IC50 (H460) [µM]	IC50 (A549) [µM]	IC50 (PC-9) [µM]	Structure (SMILES)	Cell viability (100%) (H460) [%]	Cell viability (100%) (A549) [%]	Cell viability (100%) (PC-9) [%]	IC50 [1] [µM]
–	–	–	CCc1ccc(-n2cc(-c3cccc(NC(=O)c4cn5c(c(OC)c4=O)C(=O)N4[C@H](C)CCO[C@H]4C5)c3)nn2)cc1 [Compound 9 m]	62.63	65.08	63.65	–
–	–	–	COc1c2n(cc(C(=O)Nc3cccc(-c4cn(-c5ccc(F)cc5)nn4)c3)c1=O)C[C@@H]1OCC[C@@H](C)N1C2=O [Compound 9 g]	97.85	91.65	88.64	–
–	–	–	COc1c2n(cc(C(=O)Nc3cccc(-c4cn(-c5ccccc5F)nn4)c3)c1=O)C[C@@H]1OCC[C@@H](C)N1C2=O [Compound 9a]	47.20	95.90	52.03	–
–	–	–	COc1c2n(cc(C(=O)Nc3cccc(-c4cn(-c5ccc(C(F)(F)F)cc5)nn4)c3)c1=O)C[C@@H]1OCC[C@@H](C)N1C2=O [Compound 9d]	69.71	82.37	105.15	–
14.2 ± 0.16	17.3 ± 0.73	6.75 ± 1.43	COc1ccccc1-n1cc(-c2cccc(NC(=O)c3cn4c(c(OC)c3=O)C(=O)N3[C@H](C)CCO[C@H]3C4)c2)nn1 [Compound 9t]	3.27	7.32	4.56	> 50
14.7 ± 2.83	33.7 ± 0.68	9.94 ± 0.36	COc1c2n(cc(C(=O)Nc3cccc(-c4cn(-c5ccccc5I)nn4)c3)c1=O)C[C@@H]1OCC[C@@H](C)N1C2=O [Compound 9w]	30.63	57.94	55.21	> 50
15.4 ± 1.38	> 50	12.1 ± 0.46	COc1c2n(cc(C(=O)Nc3cccc(-c4cn(Cc5ccccc5Br)nn4)c3)c1=O)C[C@@H]1OCC[C@@H](C)N1C2=O [Compound 10c]	41.79	68.05	50.54	> 50
8.24 ± 2.06	11.1 ± 1.07	4.53 ± 0.31	COc1c2n(cc(C(=O)Nc3cccc(-c4cn(-c5ccccc5OC(F)(F)F)nn4)c3)c1=O)C[C@@H]1OCC[C@@H](C)N1C2=O [Compound 9i]	8.52	17.41	18.95	> 50
–	–	–	COc1cccc(Cn2cc(-c3cccc(NC(=O)c4cn5c(c(OC)c4=O)C(=O)N4[C@H](C)CCO[C@H]4C5)c3)nn2)c1 [Compound 10d]	77.21	89.00	83.17	–
–	–	–	COc1c2n(cc(C(=O)Nc3cccc(-c4cn(-c5ccccc5C)nn4)c3)c1=O)C[C@@H]1OCC[C@@H](C)N1C2=O [Compound 9s]	48.37	82.07	65.73	–
–	–	–	COc1c2n(cc(C(=O)Nc3cccc(-c4cn(Cc5cc(Br)cc(Br)c5)nn4)c3)c1=O)C[C@@H]1OCC[C@@H](C)N1C2=O [Compound 10a]	82.32	87.40	103.57	–
11.4 ± 0.59	9.06 ± 0.88	4.03 ± 0.59	COc1c2n(cc(C(=O)Nc3cccc(-c4cn(-c5ccccc5C(F)(F)F)nn4)c3)c1=O)C[C@@H]1OCC[C@@H](C)N1C2=O [Compound 9c]	32.97	9.48	13.91	> 50
–	–	–	COc1c2n(cc(C(=O)Nc3cccc(-c4cn(Cc5ccccc5)nn4)c3)c1=O)C[C@@H]1OCC[C@@H](C)N1C2=O [Compound 10b]	55.00	87.18	96.85	–
12.9 ± 0.8	20.7 ± 0.23	9.87 ± 0.19	CCc1ccccc1-n1cc(-c2cccc(NC(=O)c3cn4c(c(OC)c3=O)C(=O)N3[C@H](C)CCO[C@H]3C4)c2)nn1 [Compound 9k]	18.72	83.48	23.40	> 50
–	–	–	COc1c2n(cc(C(=O)Nc3cccc(-c4cn(-c5c(C)cc(C)cc5C)nn4)c3)c1=O)C[C@@H]1OCC[C@@H](C)N1C2=O [Compound 9z]	55.57	91.32	73.07	–
–	–	–	COc1c2n(cc(C(=O)Nc3cccc(-c4cn(-c5ccc(C(C)(C)C)cc5)nn4)c3)c1=O)C[C@@H]1OCC[C@@H](C)N1C2=O [Compound 9n]	24.58	67.60	59.44	–
–	–	–	CCOc1ccc(-n2cc(-c3cccc(NC(=O)c4cn5c(c(OC)c4=O)C(=O)N4[C@H](C)CCO[C@H]4C5)c3)nn2)cc1 [Compound 9 h]	52.87	77.55	71.96	–
19.6 ± 0.32	27.8 ± 0.56	4.67 ± 0.26	COc1c2n(cc(C(=O)Nc3cccc(-c4cn(-c5cccc(C)c5)nn4)c3)c1=O)C[C@@H]1OCC[C@@H](C)N1C2=O [Compound 9f]	39.20	33.47	8.80	> 50
–	–	–	COc1c2n(cc(C(=O)Nc3cccc(-c4cn(-c5ccc(C)cc5)nn4)c3)c1=O)C[C@@H]1OCC[C@@H](C)N1C2=O [Compound 9y]	94.78	85.43	79.67	–
–	–	–	COc1c2n(cc(C(=O)Nc3cccc(-c4cn(Cc5ccccc5C(F)(F)F)nn4)c3)c1=O)CC1OCCC(C)N1C2=O (stereo not drawn) [Compound 10 h]	28.10	77.72	66.77	–
–	–	–	COc1ccc(-n2cc(-c3cccc(NC(=O)c4cn5c(c(OC)c4=O)C(=O)N4C(C)CCOC4C5)c3)nn2)cc1 (stereo not drawn) [Compound 9x]	108.05	69.21	78.11	–
16.5 ± 0.57	13.6 ± 1.79	6.78 ± 0.31	COc1c2n(cc(C(=O)Nc3cccc(-c4cn(-c5cc(C(F)(F)F)ccc5C(F)(F)F)nn4)c3)c1=O)C[C@@H]1OCC[C@@H](C)N1C2=O [Compound 9q]	17.63	54.85	18.17	> 50
37.3 ± 2.25	> 50	7.77 ± 0.37	COc1c2n(cc(C(=O)Nc3cccc(-c4cn(-c5ccccc5Br)nn4)c3)c1=O)C[C@@H]1OCC[C@@H](C)N1C2=O [Compound 9u]	31.00	64.09	43.88	> 50
–	–	–	COc1c2n(cc(C(=O)Nc3cccc(-c4cn(-c5cc(C(F)(F)F)cc(C(F)(F)F)c5)nn4)c3)c1=O)C[C@@H]1OCC[C@@H](C)N1C2=O [Compound 9r]	117.07	90.73	98.55	–
–	–	–	COc1cc([N+](=O)[O-])ccc1-n1cc(-c2cccc(NC(=O)c3cn4c(c(OC)c3=O)C(=O)N3[C@H](C)CCO[C@H]3C4)c2)nn1 [Compound 9b]	98.64	92.60	104.86	–
–	–	–	COc1c2n(cc(C(=O)Nc3cccc(-c4cn(Cc5ccccc5F)nn4)c3)c1=O)CC1OCCC(C)N1C2=O (stereo not drawn) [Compound 10f]	32.43	82.22	61.10	–
–	–	–	COc1ccc(-n2cc(-c3cccc(NC(=O)c4cn5c(c(OC)c4=O)C(=O)N4[C@H](C)CCO[C@H]4C5)c3)nn2)cc1OC [Compound 9j]	92.89	87.42	85.93	–
–	–	–	COc1c2n(cc(C(=O)Nc3cccc(-c4cn(Cc5ccccc5C)nn4)c3)c1=O)CC1OCCC(C)N1C2=O (stereo not drawn) [Compound 10 g]	35.98	71.58	54.61	–
–	–	–	COc1c2n(cc(C(=O)Nc3cccc(-c4cn(-c5ccccc5)nn4)c3)c1=O)C[C@@H]1OCC[C@@H](C)N1C2=O [Compound 9o]	87.72	78.59	94.56	–

From PMC11077815, “Synthesis and antitumor activity of dolutegravir derivatives bearing 1,2,3-triazole moieties” (BMC Chemistry, 2024)
